18 compounds from patent publication US20180194762A1 (Pharmacyclics LLC, priority 2017, published 2018) can be followed below.

Type in all cases: biochemical
One experiment addresses T1, Btk (Homo sapiens, UniProt Q06187).
T1 construct: purified from insect cells as a full-length construct containing a N-terminal 6X-His tag; His6 (N); made in house; host or cells: insect cells (Method C)
Kind of experiment: Btk in vitro inhibitory activity (one of Method A TR-FRET, Method B electrophoretic mobility shift, Method C radiometric filter binding). Particulars: wild-type Btk; read-out: Btk-WT IC50. The method in brief: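 Three alternative formats were used. A radiometric filter-binding read used 8 nM full-length His-BTK with 0.2 mg/mL poly(Glu-Tyr) 4:1 (C); microfluidic separation of 1 μM FAM-peptide by 1 nM BTK gave IC50 from 12-point curves (B); TR-FRET at Km ATP, 0.5 nM Btk, gave Ki(app)-derived IC50 (A).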

In a further experiment the target is T2, panel of kinases (Homo sapiens, UniProt P51813).
T2 sequence (P51813 1-675): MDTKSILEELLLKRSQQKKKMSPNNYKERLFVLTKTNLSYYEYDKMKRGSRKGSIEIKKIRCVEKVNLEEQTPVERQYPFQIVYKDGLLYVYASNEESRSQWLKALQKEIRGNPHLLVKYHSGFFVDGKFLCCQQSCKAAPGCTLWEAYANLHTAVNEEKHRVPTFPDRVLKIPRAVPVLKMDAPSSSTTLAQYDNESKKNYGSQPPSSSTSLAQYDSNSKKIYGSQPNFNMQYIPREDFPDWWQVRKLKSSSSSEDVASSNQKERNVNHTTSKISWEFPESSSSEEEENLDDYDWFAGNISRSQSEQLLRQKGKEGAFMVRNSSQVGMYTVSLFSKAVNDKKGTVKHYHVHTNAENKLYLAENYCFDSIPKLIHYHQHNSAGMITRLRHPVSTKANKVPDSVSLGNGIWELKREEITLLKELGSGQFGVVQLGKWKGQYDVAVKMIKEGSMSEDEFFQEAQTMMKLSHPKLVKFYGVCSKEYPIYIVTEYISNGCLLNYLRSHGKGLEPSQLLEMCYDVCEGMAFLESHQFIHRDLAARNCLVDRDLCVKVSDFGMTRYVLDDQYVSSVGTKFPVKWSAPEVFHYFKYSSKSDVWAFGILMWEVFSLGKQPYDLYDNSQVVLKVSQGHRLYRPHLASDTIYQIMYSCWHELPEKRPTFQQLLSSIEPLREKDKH
Kind of experiment: Inhibition of a panel of kinases (in vitro HotSpot kinase assay, 33P-ATP, 1 μM ATP), other kinases. Particulars: BMX wild-type, read-out: BMX-WT IC50. As to the method: Example 63: Inhibition of a Panel of Kinases The degree of inhibition of a panel of kinases is determined using the in vitro HotSpot kinase assay (purified enzymes, ^33P-ATP, an appropriate substrate and 1 μM ATP).

Another experiment concerns the target T3, TEC (Homo sapiens, UniProt P42680).
T3 sequence (P42680 1-631): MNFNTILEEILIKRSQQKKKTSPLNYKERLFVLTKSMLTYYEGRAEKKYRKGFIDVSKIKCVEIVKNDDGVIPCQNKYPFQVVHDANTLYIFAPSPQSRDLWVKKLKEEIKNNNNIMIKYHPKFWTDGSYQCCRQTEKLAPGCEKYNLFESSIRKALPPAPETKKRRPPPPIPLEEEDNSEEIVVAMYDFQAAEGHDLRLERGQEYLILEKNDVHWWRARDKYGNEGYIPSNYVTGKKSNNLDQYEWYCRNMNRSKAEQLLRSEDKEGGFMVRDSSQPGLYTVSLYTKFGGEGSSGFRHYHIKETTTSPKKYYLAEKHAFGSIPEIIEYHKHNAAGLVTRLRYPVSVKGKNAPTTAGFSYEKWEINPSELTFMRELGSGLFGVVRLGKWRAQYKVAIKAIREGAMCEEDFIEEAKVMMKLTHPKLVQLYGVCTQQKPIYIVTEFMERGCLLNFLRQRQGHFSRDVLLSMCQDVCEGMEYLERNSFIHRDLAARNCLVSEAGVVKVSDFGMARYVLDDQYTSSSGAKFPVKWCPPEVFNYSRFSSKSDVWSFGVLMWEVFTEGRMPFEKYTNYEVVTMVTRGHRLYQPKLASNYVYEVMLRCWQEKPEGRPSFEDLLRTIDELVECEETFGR
Description: Inhibition of a panel of kinases (in vitro HotSpot kinase assay, 33P-ATP, 1 μM ATP). Particulars: for pIC50: HotSpot kinase assay, 1 μM ATP. The gist of the method:
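At 1 μM ATP spiked with 33P-ATP, substrate phosphorylation by the purified enzymes gives the extent of inhibition.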

pIC50: −log10 of the molar value.

T1 sequence (Q06187 whole entry): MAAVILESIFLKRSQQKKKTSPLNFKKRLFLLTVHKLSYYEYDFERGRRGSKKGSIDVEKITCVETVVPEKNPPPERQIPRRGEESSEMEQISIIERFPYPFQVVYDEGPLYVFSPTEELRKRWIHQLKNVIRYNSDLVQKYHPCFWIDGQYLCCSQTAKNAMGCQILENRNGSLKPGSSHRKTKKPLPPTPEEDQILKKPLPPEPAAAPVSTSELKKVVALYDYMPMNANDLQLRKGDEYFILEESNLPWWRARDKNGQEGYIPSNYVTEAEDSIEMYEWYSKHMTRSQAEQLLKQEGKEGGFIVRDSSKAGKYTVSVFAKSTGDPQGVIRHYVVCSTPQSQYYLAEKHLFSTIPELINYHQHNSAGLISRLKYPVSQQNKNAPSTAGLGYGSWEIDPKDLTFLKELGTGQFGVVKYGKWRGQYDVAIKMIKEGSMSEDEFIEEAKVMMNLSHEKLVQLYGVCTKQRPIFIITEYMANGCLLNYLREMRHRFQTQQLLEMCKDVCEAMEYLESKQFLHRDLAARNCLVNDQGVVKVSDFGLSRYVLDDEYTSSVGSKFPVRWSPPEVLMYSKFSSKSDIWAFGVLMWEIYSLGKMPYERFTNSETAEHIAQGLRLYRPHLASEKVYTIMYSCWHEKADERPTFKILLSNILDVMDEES

For `C[C@@H](NC(=O)c1nc(C(C)(C)C)no1)c1ccc(-c2ccnc3[nH]nc(NC4CCOCC4)c23)cc1` [Example 218, 3-tert-butyl-N-[(1R)-1-(4-{3-[(oxan-4-yl)amino]-1H-pyrazolo[3,4-b]pyridin-4-yl}phenyl)ethyl]-1,2,4-oxadiazole-5-carboxamide], the pIC50 at Btk is 7.72; at panel of kinases, 5.18.

Consider `C[C@@H](NC(=O)c1noc(C(C)(C)C)n1)c1ccc(-c2ccnc3[nH]nc(C4=CCCN(C(=O)N(C)C)C4)c23)cc1` [Example 254, 5-[4-(4-{(1R)-1-[(5-tert-butyl-1,2,4-oxadiazole-3-carbonyl)amino]ethyl}phenyl)-1H-pyrazolo[3,4-b]pyridin-3-yl]-N,N-dimethyl-3,6-dihydropyridine-1(2H)-carboxamide], for which the pIC50 at Btk was 7.39; at panel of kinases, 5.04. `CC(C)(C)c1ccc(C(=O)NCc2ccc(-c3ccnc4[nH]nc(NC5CCNC5)c34)cn2)cc1` (stereo not shown) [Example 268, 4-tert-butyl-N-[(5-{3-[(pyrrolidin-3-yl)amino]-1H-pyrazolo[3,4-b]pyridin-4-yl}pyridin-2-yl)methyl]benzamide]: the pIC50 at panel of kinases is 5.52; against TEC it was 5.35. Take `OCc1ccc(-c2ccnc3[nH]nc(N[C@H]4CC[C@H](O)CC4)c23)cc1F` [Compound 11]: on panel of kinases, the pIC50 is 5.59. In addition, the TEC/Btk at TEC (ratio of TEC IC50 to Btk IC50 (selectivity)) is on record as 10.

`CC(=O)N[C@@H]1CCN(c2n[nH]c3nccc(-c4ccc([C@@H](C)NC(=O)c5cc(C(C)(C)O)on5)cc4)c23)C1` [Example 363, N-[(1R)-1-(4-{3-[(3R)-3-acetamidopyrrolidin-1-yl]-1H-pyrazolo[3,4-b]pyridin-4-yl}phenyl)ethyl]-5-(2-hydroxypropan-2-yl)-1,2-oxazole-3-carboxamide]: the values for the pIC50 on Btk and on panel of kinases were 7.32 and 5.26, respectively.

As to `Cc1c(NC(=O)c2noc(C(C)(C)C)n2)cccc1-c1ccnc2[nH]nc(N[C@@H]3CCNC3)c12` [Example 266, 5-tert-butyl-N-[2-methyl-3-(3-{[(3R)-pyrrolidin-3-yl]amino}-1H-pyrazolo[3,4-b]pyridin-4-yl)phenyl]-1,2,4-oxadiazole-3-carboxamide], on panel of kinases, the pIC50 was 5.30.

Take `CC(=O)N[C@@H]1CCN(c2n[nH]c3nccc(-c4ccc(CNC(=O)c5nc6c(o5)CCCC6)c(F)c4)c23)C1` [Example 198, N-[(4-{3-[(3R)-3-acetamidopyrrolidin-1-yl]-1H-pyrazolo[3,4-b]pyridin-4-yl}-2-fluorophenyl)methyl]-4,5,6,7-tetrahydro-1,3-benzoxazole-2-carboxamide]: the negative logarithm of the IC50 (pIC50) at Btk is 6.86; on panel of kinases, 5.50. `C[C@@H]1[C@H](Nc2n[nH]c3nccc(-c4ccc(CNC(=O)c5cc(C(C)(C)N)on5)c(F)c4)c23)CCCN1C(=O)N(C)C` [Example 317, (2R,3R)-3-({4-[4-({[5-(2-aminopropan-2-yl)-1,2-oxazole-3-carbonyl]amino}methyl)-3-fluorophenyl]-1H-pyrazolo[3,4-b]pyridin-3-yl}amino)-N,N,2-trimethylpiperidine-1-carboxamide]: the pIC50 at panel of kinases was 5.18. Same read-out and setting: next, `CN(C)C(=O)N1CC[C@@H](Nc2n[nH]c3nccc(-c4ccc(CNC(=O)c5cc(Cl)on5)c(F)c4)c23)C1` [Example 343, 5-chloro-N-{[4-(3-{[(3R)-1-(dimethylcarbamoyl)pyrroli-din-3-yl]amino}-1H-pyrazolo[3,4-b]pyridin-4-yl)-2-fluorophenyl]methyl}-1,2-oxazole-3-carboxamide]: 5.76.

Take `O=C(NCc1ccc(-c2ccnc3[nH]nc(N[C@@H]4CCNC4)c23)cc1F)c1ccc2scnc2c1` [Example 352, (R)-N-[(2-fluoro-4-{3-[(pyrrolidin-3-yl)amino]-1H-pyrazolo[3,4-b]pyridin-4-yl}phenyl)methyl]-1,3-benzothiazole-5-carboxamide]: the negative-log IC50 (pIC50) is 6.97 on Btk and 5.82 on panel of kinases. For the compound `O=C(NCc1ccc(-c2ccnc3[nH]nc(NC4CCNC4)c23)cc1F)c1cc(Cl)on1` (stereo not shown) [Example 341, 5-chloro-N-[(2-fluoro-4-{3-[(pyrrolidin-3-yl)amino]-1H-pyrazolo[3,4-b]pyridin-4-yl}phenyl)methyl]-1,2-oxazole-3-carboxamide], the pIC50 on Btk was 6.05; at panel of kinases it was 5.69. In the same order, the values of `C[C@@H](NC(=O)c1nc(C(C)(C)C)no1)c1ccc(-c2ccnc3[nH]nc(NC4CCOC4)c23)cc1` (stereo partly drawn) [Example 217, 3-tert-butyl-N-[(1R)-1-(4-{3-[(oxolan-3-yl)amino]-1H-pyrazolo[3,4-b]pyridin-4-yl}phenyl)ethyl]-1,2,4-oxadiazole-5-carboxamide] are 8.19 and 5.17.

In the case of `C[C@@H](NC(=O)c1cc(C(C)(C)O)on1)c1ccc(-c2ccnc3[nH]nc(NC4CCCCC4)c23)cc1` [Example 399, N-[(1R)-1-{4-[3-(cyclohexylamino)-1H-pyrazolo[3,4-b]pyridin-4-yl]phenyl}ethyl]-5-(2-hydroxypropan-2-yl)-1,2-oxazole-3-carboxamide], the pIC50 on panel of kinases was 5.36; against TEC, 5.03. As for `C[C@@H]1[C@H](Nc2n[nH]c3nccc(-c4ccc(CNC(=O)c5cc(C(C)(C)O)on5)c(F)c4)c23)CCCN1C(=O)N(C)C` [Example 316, (2R,3R)-3-({4-[3-fluoro-4-({[5-(2-hydroxypropan-2-yl)-1,2-oxazole-3-carbonyl]amino}methyl)phenyl]-1H-pyrazolo[3,4-b]pyridin-3-yl}amino)-N,N,2-trimethylpiperidine-1-carboxamide], the pIC50 on panel of kinases was 5.06. For the compound `O=C(NCc1ccc(-c2ccnc3[nH]nc(N[C@@H]4CCNC4)c23)cc1F)c1cc(-c2ccccc2)on1` [Example 344, (R)-N-[(2-fluoro-4-{3-[(pyrrolidin-3-yl)amino]-1H-pyrazolo[3,4-b]pyridin-4-yl}phenyl)methyl]-5-phenyl-1,2-oxazole-3-carboxamide], the negative-log IC50 (pIC50) at panel of kinases was 5.25. With `C[C@@H](NC(=O)c1cc(C(C)(C)O)on1)c1ccc(-c2ccnc3[nH]nc(NC4CCS(=O)(=O)CC4)c23)cc1` [Example 385, N-[(1R)-1-(4-{3-[(1,1-dioxo-1λ^6-thian-4-yl)amino]-1H-pyrazolo[3,4-b]pyridin-4-yl}phenyl)ethyl]-5-(2-hydroxypropan-2-yl)-1,2-oxazole-3-carboxamide], the negative-log IC50 (pIC50) on panel of kinases was 5.01. The same measure, in the same setting: in the case of `C[C@@H](NC(=O)c1cc(C(C)(C)O)on1)c1ccc(-c2ccnc3[nH]nc(NC4CCOCC4)c23)cc1` [Example 400, 5-(2-hydroxypropan-2-yl)-N-[(1R)-1-(4-{3-[(oxan-4-yl)amino]-1H-pyrazolo[3,4-b]pyridin-4-yl}phenyl)ethyl]-1,2-oxazole-3-carboxamide] it was 5.28. Still for that read-out and setting: in the case of `Cc1nc(C(=O)NCc2ccc(-c3ccnc4[nH]nc(N[C@@H]5CC[C@H](C)N(C(=O)N(C)C)C5)c34)cc2F)oc1C` [Example 194, (2S,5R)-5-{[4-(4-{[(4,5-dimethyl-1,3-oxazole-2-carbonyl)amino]methyl}-3-fluorophenyl)-1H-pyrazolo[3,4-b]pyridin-3-yl]amino}-N,N,2-trimethylpiperidine-1-carboxamide] it was 5.31.
